Here are results for 26 molecules from patent US6518272B2, “Cycloalkyl-substituted aryl-piperazines, piperidines and tetrahydropyridines as serotonergic agents” (Wyeth, priority 1998, dated 2003).

Structures can show the parent of a compound that is named as a salt.

In series [1] the target is T1, human 5-HT1A receptor (Homo sapiens, UniProt P08908).
T1 construct: expressed in transfected cells; host or cells: CHO cells (stably transfected)
T1 sequence (P08908 1-422): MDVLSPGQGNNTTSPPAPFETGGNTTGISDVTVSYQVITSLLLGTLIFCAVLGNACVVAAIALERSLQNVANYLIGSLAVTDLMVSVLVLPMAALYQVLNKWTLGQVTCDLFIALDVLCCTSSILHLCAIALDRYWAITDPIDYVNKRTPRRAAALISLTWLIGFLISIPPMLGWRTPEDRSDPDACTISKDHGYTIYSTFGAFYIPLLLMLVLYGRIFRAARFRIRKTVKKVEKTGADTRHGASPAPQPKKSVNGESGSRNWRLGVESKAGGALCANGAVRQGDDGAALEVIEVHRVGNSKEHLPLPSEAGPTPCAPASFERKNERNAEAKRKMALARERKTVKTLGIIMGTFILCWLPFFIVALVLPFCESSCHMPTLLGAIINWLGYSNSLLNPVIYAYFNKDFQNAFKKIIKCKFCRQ
The series can be described thus: Antagonist activity: antagonism of 8-OHDPAT inhibition of forskolin-stimulated cAMP accumulation in transfected CHO cells. In kind it is cell-based. To be noted: CHO cells with human 5-HT1A receptor. The source says:
(§1) Methods, 40, 47-55 (1998); variation of a procedure described by J. Zgombick et al., Naunyn-Schmiedeberg's Arch. Pharmacol., 354, 226-236 (1996)].
(Changes in cAMP serve as a functional read-out for many G protein-coupled receptors.)

The target in series [2] is T1, human 5-HT1A receptor. Nature of the series: Displacement of [3H] 8-OHDPAT from the 5-HT1A receptor in transfected CHO cells. The series is classed as binding. An excerpt:
Affinity for the serotonin 5-HT1A receptor was established by assaying the test compound's ability to displace [^3H] 8-OHDPAT from its binding site on the receptor complex in CHO cells stably transfected with the human 5-HT1A receptor following the procedure described by J. Dunlop, Y. Zhang, D. Smith and L. Schechter (Eur. J. Pharmacol., submitted; variation of a procedure described by J. Zgombick et al., Naunyn-Schmiedeberg's Arch. Pharmacol., 354, 226-236 (1996)).

For series [3], the target named is T1, human 5-HT1A receptor. Nature of the series: Agonist activity: inhibition of forskolin-stimulated cAMP accumulation in transfected CHO cells. To be noted: CHO cells with human 5-HT1A receptor. The series is classed as cell-based.
Description: as §1

[4] abbreviates: displacement of [3H] 8-OHDPAT, CHO cells stably transfected with the human 5-HT1A receptor, read-out: 5-HT1A Affinity (IC50).

In the case of `COc1ccccc1C1CCN(C[C@@H](CC2CCCCC2)N(C)C(=O)C2(C)CCCCC2)CC1` [Example 18, 1-Methyl-cyclohexanecarboxylic Acid {(1R)-1-Cyclohexylmethyl-2-[4-(2-methoxypheniyl)-piperidin-1-yl]-ethyl}-methyl-amide], the 50% inhibitory concentration (IC50) (in general, the concentration that gives 50% inhibition) in series [1] was found to be 97.5 nM; in series [2] (setting [4]), 5.33 nM.

As for `COc1ccccc1C1=CCN(C[C@@H](CC2CCCCC2)NC(=O)C2(C)CCCCC2)CC1` [Example 21, 1-Methyl-cyclohexanecarboxylic Acid {(1R)-1-Cyclohexylmethyl-2-[4-(2-methoxyphenyl)-3,6-dihydro-2H-pyridin-1-yl]-ethyl}-amide], the IC50 in series [1] was 45.5 nM; in series [2], 2.75 nM.

Turning to `O=C(N[C@H](CC1CCCCC1)CN1CCN(c2ncccn2)CC1)C1CCCCC1` [Example 10, Cyclohexanecarboxylic Acid {(1R)-1-Cyclohexylmethyl-2-[4-(pyrimidin-2-yl)-piperazin-1-yl]-ethyl}-amide], the EC50 (commonly the concentration that produces a half-maximal response) in series [3] was determined as 1.3 nM. Moreover, the half-maximal inhibitory concentration (IC50) in series [2] (setting [4]) came out at 0.71 nM.

As to `COc1ccccc1C1CCN(C[C@@H](CC2CCCCC2)NC(=O)C(C)(C)C)CC1` [Example 19, N-{(1R)-1-Cyclohexylmethyl-2-[4-(2-methoxyphenyl)-piperidin-1-yl]-ethyl}-2,2-dimethyl-propionamide], the IC50 in series [1] is 40 nM; in series [2] (setting [4]) it was 2.19 nM.

For the molecule `COc1ccccc1N1CCN(C[C@@H](CC2CCCCC2)NC(=O)C2(C)CCCCC2)CC1` [Example 2, 1-Methyl-cyclohexanecarboxylic Acid of {(1R)-1-Cyclohexylmethyl-2-[4-(2-methoxyphenyl)-piperazin-1-yl]-ethyl}-amide], the figures for the IC50 in series [1] and in series [2] (setting [4]) were 14.6 nM and 1.23 nM, respectively.

Take `COc1ccccc1C1CCN(C[C@@H](CC2CCCCC2)N(C)C(=O)C2CCCCC2)CC1` [Example 17, Cyclohexanecarboxylic Acid {(1R)-1-Cyclohexylmethyl-2-[4-(2-methoxyphenyl)-piperidin-1-yl]-ethyl}-methyl-amide]: the half-maximal inhibitory concentration (IC50) in series [1] was 91.5 nM; in series [2] (setting [4]), 1.69 nM.

Regarding `O=C(N[C@H](CC1CCCCC1)CN1CCN(c2nccc3ccccc23)CC1)C1CCCCC1` [Example 14, Cyclohexanecarboxylic Acid {(1R)-1-Cyclohexylmethyl-2-[4-(isoquinolin-1-yl)-piperazin-1-yl]-ethyl}-amide], the 50% inhibitory concentration (IC50) in series [2] (setting [4]) is 1.69 nM.

Consider `CN(C(=O)C1(C)CCCCC1)[C@H](CC1CCCCC1)CN1CCN(c2cccc3[nH]ccc23)CC1` [Example 8], for which the concentration for half-maximal inhibition (IC50) in series [2] (setting [4]) is 32.7 nM.

Regarding `COc1ccccc1N1CCN(C[C@@H](CC2CCCCC2)N(C)C(=O)C2CCCCC2)CC1` [Example 3, Cyclohexanecarboxylic Acid {(1R)-1-Cyclohexylmethyl-2-[4-(2-methoxyphenyl)-piperazin-1-yl]-ethyl}-methyl-amide], the figures for the half-maximal inhibitory concentration (IC50) in series [1] and in series [2] (setting [4]) were 4 nM and 1.46 nM, respectively.

Take `COc1ccccc1C1CCN(C[C@@H](CC2CCCCC2)NC(=O)C(C)(C)C)CC1` (as salt: hydrochloride) (hydrate or solvate) [Example 19, N-{(1R)-1-Cyclohexylmethyl-2-[4-(2-methoxyphenyl)-piperidin-1-yl]-ethyl}-2,2-dimethyl-propionamide]: the melting point (as a rule, the temperature, or range, at which the solid turns liquid) lay in the range of 97 to 99 °C.

For the molecule `O=C(N[C@H](CC1CCCCC1)CN1CCN(c2nc3ccccc3s2)CC1)C1CCCCC1` (as salt: hydrochloride) [Example 13, Cyclohexanecarboxylic Acid {(1R)-1-Cyclohexylmethyl-2-[4-(benzothiazol-2-yl)-piperazin-1-yl]-ethyl}-amide], the melting point lay in the range of 229 to 232 °C.

Regarding `O=C(N[C@H](CC1CCCCC1)CN1CCN(c2nccc3ccccc23)CC1)C1CCCCC1` (as salt: hydrochloride) [Example 14, Cyclohexanecarboxylic Acid {(1R)-1-Cyclohexylmethyl-2-[4-(isoquinolin-1-yl)-piperazin-1-yl]-ethyl}-amide], the melting point was in the range of 155 to 159 °C.

With `COc1ccccc1C1CCN(C[C@@H](CC2CCCCC2)NC(=O)C2(C)CCCCC2)CC1` [Example 16, 1-Methyl-cyclohexanecarboxylic acid {(1R)-1-cyclohexylmethyl-2-[4-(2-methoxyphenyl)-piperidin-1-yl]-ethyl}-amide], the IC50 in series [1] was 46 nM; in series [2] (setting [4]) it was 5.97 nM.

With `COc1ccccc1C1CCN(C[C@@H](CC2CCCCC2)N(C)C(=O)C2CCCCC2)CC1` (as salt: hydrochloride) (hydrate or solvate) [Example 17, Cyclohexanecarboxylic Acid {(1R)-1-Cyclohexylmethyl-2-[4-(2-methoxyphenyl)-piperidin-1-yl]-ethyl}-methyl-amide], the melting point lay in the range of 135 to 137 °C.

Take `O=C(N[C@H](CC1CCCCC1)CN1CCN(c2ncccn2)CC1)C1CCCCC1` (as salt: hydrochloride) [Example 10, Cyclohexanecarboxylic Acid {(1R)-1-Cyclohexylmethyl-2-[4-(pyrimidin-2-yl)-piperazin-1-yl]-ethyl}-amide]: the melting point is 121 to 123 °C.

In turn, `COc1ccccc1N1CCN(C[C@@H](CC2CCCCC2)NC=O)CC1` (as salt: hydrochloride) (hydrate or solvate) [Example 9, N-{(1R)-1-Cyclohexylmethyl-2-[4-(2-methoxyphenyl)-piperazin-1-yl]-ethyl}-formamide] yielded a melting point of 157 to 159 °C.

As to `COc1ccccc1C1CCN(C[C@@H](CC2CCCCC2)N(C)C(=O)C(C)(C)C)CC1` [Example 20, N-{(1R)-1-Cyclohexylmethyl-2-[4-(2-methoxyphenyl)-piperidin-1-yl]-ethyl}-2,2,N-trimethyl-propionamide], in series [2] (setting [4]), the IC50 was 5 nM.

Regarding `COc1ccccc1N1CCN(C[C@@H](CC2CCCCC2)NC(=O)C2CCCCC2)CC1` (as salt: hydrochloride) [Example 1, Cyclohexanecarboxylic Acid {(1R)-1-Cyclohexylmethyl-2-[4-(2-methoxyphenyl)-piperazin-1-yl]-ethyl}-amide], the melting point was 121 to 131 °C.

The molecule `CN(C(=O)C1CCCCC1)[C@H](CC1CCCCC1)CN1CCN(c2cccc3[nH]ccc23)CC1` (as salt: hydrochloride) (hydrate or solvate) [Example 7, Cyclohexanecarboxylic Acid {(1R)-1-Cyclohexylmethyl-2-[4-(1H-indol-4-yl)-piperazin-1-yl]-ethyl}-methyl-amide] showed a melting point above 260 °C.

Take `COc1ccccc1N1CCN(C[C@@H](CC2CCCCC2)N(C)C(=O)C2CCCCC2)CC1` (as salt: hydrochloride) [Example 3, Cyclohexanecarboxylic Acid {(1R)-1-Cyclohexylmethyl-2-[4-(2-methoxyphenyl)-piperazin-1-yl]-ethyl}-methyl-amide]: the melting point was in the range of 222 to 224 °C.

`CN(C(=O)C1(C)CCCCC1)[C@H](CC1CCCCC1)CN1CCN(c2cccc3c2OCCO3)CC1` (as salt: hydrochloride) [Example 6, 1-Methyl-cyclohexanecarboxylic Acid {(1R)-1-Cyclohexylmethyl-2-[4-(2,3-dihydro-benzo[1,4]dioxin-5-yl)-piperazin-1-yl]-ethyl}-methyl-amide]: the melting point was in the range of 219 to 220 °C.

As to `COc1ccccc1N1CCN(C[C@@H](CC2CCCCC2)NC=O)CC1` [Example 9, N-{(1R)-1-Cyclohexylmethyl-2-[4-(2-methoxyphenyl)-piperazin-1-yl]-ethyl}-formamide], the IC50 was 17.3 nM in series [1] and 1.49 nM in series [2] (setting [4]).

For `CN(C(=O)C1(C)CCCCC1)[C@H](CC1CCCCC1)CN1CCN(c2cccc3c2OCCO3)CC1` [Example 6, 1-Methyl-cyclohexanecarboxylic Acid {(1R)-1-Cyclohexylmethyl-2-[4-(2,3-dihydro-benzo[1,4]dioxin-5-yl)-piperazin-1-yl]-ethyl}-methyl-amide], the IC50 in series [1] is 7.3 nM; in series [2] (setting [4]), 6.92 nM.

Turning to `CN(C(=O)C1CCCCC1)[C@H](CC1CCCCC1)CN1CCN(c2cccc3[nH]ccc23)CC1` [Example 7, Cyclohexanecarboxylic Acid {(1R)-1-Cyclohexylmethyl-2-[4-(1H-indol-4-yl)-piperazin-1-yl]-ethyl}-methyl-amide], the values for the IC50 in series [1] and in series [2] (setting [4]) were 10.5 nM and 8.84 nM, respectively.

As for `CN(C(=O)C1CCCCC1)[C@H](CC1CCCCC1)CN1CCN(c2cccc3c2OCCO3)CC1` [Example 5], the IC50 came out at 4.6 nM in series [1] and 2.37 nM in series [2] (setting [4]).

With `COc1ccccc1N1CCN(C[C@@H](CC2CCCCC2)N(C)C(=O)C2(C)CCCCC2)CC1` [Example 4, 1-Methyl-cyclohexanecarboxylic Acid {(1R)-1-Cyclohexylmethyl-2-[4-(2-methoxyphenyl)-piperazin-1-yl]-ethyl}-methyl-amide], the IC50 in series [1] worked out at 10.2 nM; in series [2] (setting [4]), 2.82 nM.
